Experimental findings from ChEMBL document CHEMBL1154018, “Esters of betulin and betulinic acid with amino acids have improved water solubility and are selectively cytotoxic toward cancer cells” (Bioorg Med Chem Lett, 2009) are described below.

By IC50 is commonly meant the concentration that inhibits the measured activity by half. Higher therefore signals weaker potency.

A short description of series [1]: Cytotoxicity against human EPP85-181P cells after 24 hrs by SRB method. The series is classed as functional, cell-based. (Sulforhodamine B stains cellular protein and so reports cell mass.)
Series [2] can be described thus: Cytotoxicity against daunorubicin-resistant human EPP85-181RDB cells after 24 hrs by SRB method. The series is classed as functional, cell-based.
A short description of series [3]: Cytotoxicity against human EPG85-257P cells after 24 hrs by SRB method. The series is classed as functional, cell-based.
Series [4] in a line: Cytotoxicity against daunorubicin-resistant human EPG85-257RDB cells after 24 hrs by SRB method. The series is classed as functional, cell-based.
Series [5] can be described thus: Aqueous solubility in DMSO solution at 1 mg. The series is classed as physicochemical.
Series [6] can be described thus: Induction of apoptosis in human EPP85-181P cells assessed as cell accumulation at apoptotic phase after 24 hrs by comet assay. The series is classed as functional.
Series [7] can be described thus: Induction of apoptosis in human EPP85-181P cells assessed as normal cells after 24 hrs by comet assay. The series is classed as functional.
A short description of series [8]: Induction of apoptosis in human EPG85-257P cells assessed as cell accumulation at apoptotic phase after 24 hrs by comet assay. The series is classed as functional.
Series [9] is described as follows: Induction of apoptosis in human EPG85-257P cells assessed as normal cells after 24 hrs by comet assay. The series is classed as functional.
The nature of series [10]: Chemical stability in 0.02M phosphatre buffer of pH 7.4 after 6 days by RP-HPLC. The series is classed as physicochemical. Particulars: pH 7.4, 144 h.

For the compound `C=C(C)[C@@H]1CC[C@]2(COC(=O)[C@@H](N)CCSC)CC[C@]3(C)[C@H](CC[C@@H]4[C@@]5(C)CC[C@H](OC(=O)[C@@H](N)CCSC)C(C)(C)[C@@H]5CC[C@]43C)[C@@H]12`, the 50% inhibitory concentration (IC50) in series [1] was 22 µM; in series [2] it was greater than 50 µM; in series [3], 31 µM; in series [4] it was greater than 50 µM. Besides, the solubility result in series [5] is given as “Soluble”. Further, the Activity was found to be 24.7% in series [6], 75.3% in [7], 15.1% in series [8] and 84.9% in series [9].

With `C=C(C)[C@@H]1CC[C@]2(COC(=O)[C@H](C)N)CC[C@]3(C)[C@H](CC[C@@H]4[C@@]5(C)CC[C@H](OC(=O)[C@H](C)N)C(C)(C)[C@@H]5CC[C@]43C)[C@@H]12`, the half-inhibitory concentration (IC50) in [1] is 4.6 µM; in [2], 21 µM; in series [3], 17 µM; in series [4], greater than 50 µM. Besides, the solubility result in [5] is on record as “Soluble”. The Activity in series [6] is on record as 100%; in series [7], 0%; in [8], 100%; in series [9], 0%.

Consider `C=C(C)[C@@H]1CC[C@]2(C(=O)O)CC[C@]3(C)[C@H](CC[C@@H]4[C@@]5(C)CC[C@H](OC(=O)[C@H](C)N)C(C)(C)[C@@H]5CC[C@]43C)[C@@H]12`, for which the IC50 in [1] was greater than 50 µM; in series [2], greater than 50 µM; in [3] it was 48 µM; in series [4], greater than 50 µM. In series [5], the solubility result was “Soluble”. Further, the Activity in series [6] is recorded as 25.9%; in series [7], 74.1%; in series [8] it was 1.4%; in series [9] it was 98.6%.

In the case of `C=C(C)[C@@H]1CC[C@]2(COC(=O)CN)CC[C@]3(C)[C@H](CC[C@@H]4[C@@]5(C)CC[C@H](O)C(C)(C)[C@@H]5CC[C@]43C)[C@@H]12`, the 50% inhibitory concentration (IC50) in series [1], in [2], in series [3] and in series [4] was greater than 50 µM in each case. For the same compound, the solubility result in series [5] is on record as “Soluble”. For the same compound, the Activity is 1.4% in [6], 98.6% in series [7], 9.8% in [8] and 90.2% in series [9].

Consider `C=C(C)[C@@H]1CC[C@]2(C(=O)O)CC[C@]3(C)[C@H](CC[C@@H]4[C@@]5(C)CC[C@H](OC(=O)[C@@H](N)CCCN)C(C)(C)[C@@H]5CC[C@]43C)[C@@H]12`, for which the IC50 was 14 µM in series [1], greater than 50 µM in series [2], 9.7 µM in series [3] and greater than 50 µM in series [4]. Also, in [5], the solubility entry was “Soluble”. The figures for the Activity in series [6] and in [7] were 99% and 1%, respectively.

In the case of `C=C(C)[C@@H]1CC[C@]2(CO)CC[C@]3(C)[C@H](CC[C@@H]4[C@@]5(C)CC[C@H](O)C(C)(C)[C@@H]5CC[C@]43C)[C@@H]12` [BETULIN], the IC50 in [1] is greater than 50 µM; in [2] it was 46 µM; in [3], 26 µM; in series [4], greater than 50 µM. For the same compound, in series [5], the solubility result is reported as “Insoluble”. Also, the Activity in series [6] came to 2%; in series [7], 98%; in [8], 0.5%; in series [9], 99.5%.

As for `C=C(C)[C@@H]1CC[C@]2(COC(=O)[C@H](C)N)CC[C@]3(C)[C@H](CC[C@@H]4[C@@]5(C)CC[C@H](O)C(C)(C)[C@@H]5CC[C@]43C)[C@@H]12`, the 50% inhibitory concentration (IC50) is greater than 50 µM in series [1], greater than 50 µM in series [2], 38 µM in series [3] and greater than 50 µM in [4]. For the same compound, the solubility entry in series [5] is recorded as “Soluble”. The Activity in [6] is listed as 5.2%; in series [7] it was 94%; in [8], 42%; in series [9] it was 58%.

Regarding `C=C(C)[C@@H]1CC[C@]2(C(=O)O)CC[C@]3(C)[C@H](CC[C@@H]4[C@@]5(C)CC[C@H](O)C(C)(C)[C@@H]5CC[C@]43C)[C@@H]12` [BETULINIC ACID], the IC50 in series [1] was 32 µM; in [2], greater than 50 µM; in series [3] it was 42 µM; in series [4], greater than 50 µM. Further, in [5], the solubility entry is “Soluble”. Besides, the Activity in series [6] was determined as 16%; in [7], 84%; in series [8], 4%; in [9], 96%.

Take `C=C(C)[C@@H]1CC[C@]2(COC(=O)CN)CC[C@]3(C)[C@H](CC[C@@H]4[C@@]5(C)CC[C@H](OC(=O)CN)C(C)(C)[C@@H]5CC[C@]43C)[C@@H]12`: the concentration for half-maximal inhibition (IC50) in [1], in series [2], in [3] and in [4] was greater than 50 µM in each case. Besides, the solubility entry in [5] is “Soluble”. For the same compound, the Activity in [6] was 0.5%; in series [7], 99.5%.

`C=C(C)[C@@H]1CC[C@]2(C(=O)O)CC[C@]3(C)[C@H](CC[C@@H]4[C@@]5(C)CC[C@H](OC(=O)[C@@H](N)Cc6ccccc6)C(C)(C)[C@@H]5CC[C@]43C)[C@@H]12`: the IC50 in [1], in series [2], in series [3] and in [4] was greater than 50 µM each time. Besides, the solubility entry in series [5] is listed as “Soluble”. Besides, the Activity in series [6] was found to be 3.1%; in series [7], 96.9%; in series [8], 2.5%; in series [9], 97.5%.

With `C=C(C)[C@@H]1CC[C@]2(COC(=O)[C@@H](N)CCCCN)CC[C@]3(C)[C@H](CC[C@@H]4[C@@]5(C)CC[C@H](OC(=O)[C@@H](N)CCCCN)C(C)(C)[C@@H]5CC[C@]43C)[C@@H]12`, the Stability entry in [10] is given as “Stable”. Further, the IC50 in series [1] is 3.8 µM; in series [2] it was 18 µM; in series [3], 4.1 µM; in series [4], greater than 50 µM. The solubility result in series [5] is “Soluble”. For the same compound, the Activity in series [6] stood at 99.5%; in series [7], 0.5%; in series [8] it was 100%; in [9], 0%.

Turning to `C=C(C)[C@@H]1CC[C@]2(COC(=O)[C@@H](N)Cc3ccccc3)CC[C@]3(C)[C@H](CC[C@@H]4[C@@]5(C)CC[C@H](OC(=O)[C@@H](N)Cc6ccccc6)C(C)(C)[C@@H]5CC[C@]43C)[C@@H]12`, the IC50 in series [1], in series [2], in series [3] and in [4] was greater than 50 µM in each case. Besides, the solubility result in [5] is given as “Soluble”. The Activity in series [6] is listed as 1%; in series [7], 99%; in series [8], 9%; in series [9] it was 91%.

In the case of `C=C(C)[C@@H]1CC[C@]2(C(=O)O)CC[C@]3(C)[C@H](CC[C@@H]4[C@@]5(C)CC[C@H](OC(=O)[C@@H](N)CC)C(C)(C)[C@@H]5CC[C@]43C)[C@@H]12`, the half-inhibitory concentration (IC50) in series [1] was 26 µM; in series [2], greater than 50 µM; in series [3] it was 33 µM; in [4], greater than 50 µM. Moreover, in series [5], the solubility entry is on record as “Soluble”. Besides, the Activity was found to be 69.6% in [6], 30.4% in series [7], 1.7% in [8] and 98.3% in series [9].
